Results from US20240269133A1, “METHODS OF TREATING INTERSTITIAL CYSTITIS/BLADDER PAIN SYNDROME” (Purdue Pharma L.P., priority 2021, published 2024).
One block for each compound: values may come before it.

What was measured:
[1] = test system: CYP-induced visceral pain; assay: Cyclophosphamide (CYP)-induced visceral pain model (acute cystitis), von Frey testing; format: in vivo, female Sprague-Dawley rats; details: for AUC 1-6 g (allodynia) / Nociceptive threshold: mean ± s.e.m.
[2] = Urine concentration after a single oral dose (methyl cellulose suspension); format: in vivo, humans; details: human
[3] = 30 mg/kg p.o., overall 2-24 h after CYP

Structure (SMILES): CC(C)Cc1ccc(C(C)C(=O)O)cc1 (centres unmarked) [Ibuprofen, reference compound]
Effect on nociceptive scores vs vehicle ([1]; 300 mg/kg p.o., all along the observation period (2-24 h)): significantly decreased
Effect on nociceptive threshold vs vehicle ([1]; 300 mg/kg p.o., overall 2-24 h after CYP): significant overall increase

Urine concentration, mean ([2]; 0.2 mg single oral dose, 0 to 8 h): 2311 nM
Urine concentration, mean ([2]; 0.2 mg single oral dose, 8 to 16 h): 394 nM
Urine concentration, mean ([2]; 0.2 mg single oral dose, 16 to 24 h): BQL
Urine concentration, mean ([2]; 0.2 mg single oral dose, 24 to 32 h): BQL
Urine concentration, mean ([2]; 0.2 mg single oral dose, 32 to 40 h): BQL
Urine concentration, mean ([2]; 0.2 mg single oral dose, 40 to 48 h): BQL
Urine concentration, mean ([2]; 0.6 mg single oral dose, 0 to 8 h): 1641 nM
Urine concentration, mean ([2]; 0.6 mg single oral dose, 8 to 16 h): 531 nM
Urine concentration, mean ([2]; 0.6 mg single oral dose, 16 to 24 h): BQL
Urine concentration, mean ([2]; 0.6 mg single oral dose, 24 to 32 h): BQL
Urine concentration, mean ([2]; 0.6 mg single oral dose, 32 to 40 h): BQL
Urine concentration, mean ([2]; 0.6 mg single oral dose, 40 to 48 h): BQL
Urine concentration, mean ([2]; 2 mg single oral dose, 0 to 8 h): 10809 nM
Urine concentration, mean ([2]; 2 mg single oral dose, 8 to 16 h): 1440 nM
Urine concentration, mean ([2]; 2 mg single oral dose, 16 to 24 h): 400 nM
Urine concentration, mean ([2]; 2 mg single oral dose, 24 to 32 h): BQL
Urine concentration, mean ([2]; 2 mg single oral dose, 32 to 40 h): BQL
Urine concentration, mean ([2]; 2 mg single oral dose, 40 to 48 h): BQL
Urine concentration, mean ([2]; 10 mg single oral dose, 0 to 8 h): 30964 nM
Urine concentration, mean ([2]; 10 mg single oral dose, 8 to 16 h): 14181 nM
Urine concentration, mean ([2]; 10 mg single oral dose, 16 to 24 h): 1994 nM
Urine concentration, mean ([2]; 10 mg single oral dose, 24 to 32 h): 535 nM
Urine concentration, mean ([2]; 10 mg single oral dose, 32 to 40 h): 240 nM
Urine concentration, mean ([2]; 10 mg single oral dose, 40 to 48 h): BQL
Structure (SMILES): O=C(O)c1nc2ccccc2n([C@H]2C[C@H]3CCC[C@@H](C2)N3C2CC3CCCC(C3)C2)c1=O (some centres unmarked) [compound of formula (IA)]
AUC 1-6 g (allodynia) ([1]; 30 mg/kg p.o., +2 h after CYP): 19.8±6.9 % scores × g
Nociceptive threshold ([1]; 30 mg/kg p.o., +2 h after CYP): 6.6 ± 0.8 g
AUC 1-6 g (allodynia) ([1]; 30 mg/kg p.o., +3 h after CYP): 19.3±6.3 % scores × g
Nociceptive threshold ([1]; 30 mg/kg p.o., +3 h after CYP): 6.3 ± 1.2 g
AUC 1-6 g (allodynia) ([1]; 30 mg/kg p.o., +4 h after CYP): 34.1±7.9 % scores × g
Nociceptive threshold ([1]; 30 mg/kg p.o., +4 h after CYP): 4.8 ± 0.8 g
AUC 1-6 g (allodynia) ([1]; 30 mg/kg p.o., +24 h after CYP): 61.8±15.7 % scores × g
Nociceptive threshold ([1]; 30 mg/kg p.o., +24 h after CYP): 3.7 ± 0.8 g
Effect on nociceptive threshold vs vehicle ([1]; 30 mg/kg p.o., CYP-injected rats, overall 2-24 h): overall inhibitory effect
Effect on nociceptive scores vs vehicle ([1]; 30 mg/kg p.o., from 2 h up to 24 h after CYP): significant decrease
Effect on AUC 1-6 g vs vehicle [1, 3]: overall decrease
Effect on CYP-induced AUC 6-26 g increase (hyperalgesia) vs vehicle [1, 3]: significant overall inhibitory effect
